Experimental data from ChEMBL document CHEMBL3286270, “Adenosine analogue inhibitors of S-adenosylhomocysteine hydrolase” (Bioorg Med Chem Lett, 2014).

How the values were obtained:
Adenosylhomocysteinase [1] = biological target: T1, Adenosylhomocysteinase (Homo sapiens, UniProt P23526); assay: Inhibition of recombinant human AHCY using SAH as substrate assessed as formation of homocysteine after 10 mins
Adenosylhomocysteinase [2] = biological target: T1, Adenosylhomocysteinase; assay: Inhibition of AHCY in human SH-SY5Y cells assessed as formation of homocysteine after 48 hrs by HPLC analysis; type: cell-based
[3] = Plasma protein binding in rat; type: ADME, cell-free
[4] = Solubility of the compound at pH 7; type: physicochemical; details: buffer
[5] = Oral bioavailability in rat; type: ADME, organism-based; details: in vivo
[6] = Half life in rat; type: ADME, organism-based; details: in vivo
[7] = Half life in dog; type: ADME, organism-based, Canis lupus familiaris; details: in vivo
[8] = Clearance in dog; type: ADME, organism-based, Canis lupus familiaris; details: in vivo
[9] = Oral bioavailability in dog; type: ADME, organism-based, Canis lupus familiaris; details: in vivo
[10] = Clearance in rat; type: ADME, organism-based; details: in vivo
[11] = Plasma protein binding in human; type: ADME, cell-free

T1 sequence (P23526 whole entry): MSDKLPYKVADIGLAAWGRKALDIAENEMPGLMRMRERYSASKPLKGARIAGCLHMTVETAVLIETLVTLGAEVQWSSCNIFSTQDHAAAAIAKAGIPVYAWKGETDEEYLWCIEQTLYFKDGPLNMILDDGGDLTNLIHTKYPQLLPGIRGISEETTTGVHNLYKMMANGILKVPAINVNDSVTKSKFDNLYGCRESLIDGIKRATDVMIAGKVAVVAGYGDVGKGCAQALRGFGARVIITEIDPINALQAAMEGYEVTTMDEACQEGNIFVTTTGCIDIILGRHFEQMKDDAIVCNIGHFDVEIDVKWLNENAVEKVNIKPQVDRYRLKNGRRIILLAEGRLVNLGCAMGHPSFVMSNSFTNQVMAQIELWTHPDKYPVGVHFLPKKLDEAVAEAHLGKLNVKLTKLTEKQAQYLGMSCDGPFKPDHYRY

Structure (SMILES)	IC50 (Adenosylhomocysteinase [1]) [nM]	IC50 (Adenosylhomocysteinase [2]) [nM]	further results
Nc1ncc(F)c2c1ncn2[C@@H]1C[C@@H](O)[C@@H](O)[C@H]1O	> 10000	878	
Nc1nc(F)cc2c1ncn2[C@@H]1CC[C@@H](O)[C@H]1O	4830		
Nc1ncc(F)c2c1ncn2[C@@H]1C[C@@H](F)[C@@H](O)[C@H]1O	> 10000	672	
Nc1ncc(F)c2c1ncn2[C@@H]1C=C[C@@H](O)[C@H]1O	9690		
Nc1ncnc2c1nc(F)n2[C@@H]1CC[C@@H](O)[C@H]1O	> 10000	> 10000	
Nc1nc(F)nc2c1ncn2[C@@H]1CC[C@@H](O)[C@H]1O	2120	98	
Nc1ncnc2c1nc(Br)n2[C@@H]1CC[C@@H](O)[C@H]1O	> 10000	> 10000	
Nc1ncnc2c1ncn2[C@@H]1C=C[C@@H](O)[C@H]1O	4120	877	
Nc1nc(F)c(F)c2c1ncn2[C@@H]1CC[C@@H](O)[C@H]1O	3640	189	
Nc1ncc(F)c2c1ncn2[C@H]1[C@H](O)[C@H](O)[C@@H]2C[C@@H]21	> 10000	1960	
Nc1ncnc2c1nc(Cl)n2[C@@H]1CC[C@@H](O)[C@H]1O	> 10000	2100	

Now those with a lower IC50 (Adenosylhomocysteinase [1]), led by results:

IC50 (Adenosylhomocysteinase [1]) [nM]	IC50 (Adenosylhomocysteinase [2]) [nM]	Structure (SMILES)	further results
1220		C[C@H]1C[C@@H](n2cnc3c(N)ncc(F)c32)[C@H](O)[C@@H]1O	
976		Nc1ncc(F)c2c1ncn2[C@@H]1C(F)=C[C@@H](O)[C@H]1O	
455	2.7	Nc1ncc(F)c2c1ncn2[C@@H]1C(F)C[C@@H](O)[C@H]1O (mixture of isomers)	
269	41	Nc1ncc(F)c2c1ncn2[C@@H]1C[C@H](F)[C@@H](O)[C@H]1O	
250	1.5	Nc1nccn2c([C@@H]3CC[C@@H](O)[C@H]3O)cnc12	
236	36	Cc1cnc(N)c2ncn([C@@H]3CC[C@@H](O)[C@H]3O)c12	
195	939	Nc1ncnc2c1ncn2[C@@H]1C=C(CCl)[C@@H](O)[C@H]1O	
55	1.5	Nc1ncnc2c1ncn2[C@@H]1CC[C@@H](O)[C@H]1O	
40	1.3	Nc1ncc(F)c2c1ncn2[C@@H]1CC[C@@H](O)[C@H]1O	PPB [3]: < 0.1%; solubility [4]: > 200 uM/ml; bioavailability [5]: 86%; half-life [6]: 0.9 h; half-life [7]: 3.6 h; clearance [8]: 9.6 mL/min/kg; bioavailability [9]: > 99%; clearance [10]: 21 mL/min/kg; PPB [11]: < 0.1%
24	9.4	Nc1ncc(F)c2c1ncn2[C@@H]1C[C@H](O)[C@@H](O)[C@H]1O	
16	2.2	Nc1ncc(Cl)c2c1ncn2[C@@H]1CC[C@@H](O)[C@H]1O	
1.5	10	Nc1ncnc2c1ncn2[C@@H]1C=C(CO)[C@@H](O)[C@H]1O [NEOPLANOCIN A]	
